We go through 8 compounds from patent US6350765B1, “Fungicidal mixtures based on amide compounds and azoles” (priority 2000, dated 2002).

This assay concerns Botrytis cinerea. Put plainly: Activity against Botrytis cinerea on bell peppers (fruit disks, protective spray). The format is in vivo. As to conditions: in Capsicum, 96 h, read-out: Efficacy in % of the untreated control. As for the experimental part:
The active ingredients, separately or together, are formulated as a 10% emulsion in a mixture of 63% by weight of cyclohexanone and 27% by weight of emulsifier, and diluted with water to the desired concentration.
Evaluation is carried out by determining the infected leaf areas in percent. These percentages are converted into efficacies. The efficacy (W) is calculated as follows using Abbot's formula: […]
α corresponds to the fungal infection of the treated plants in % and β corresponds to the fungal infection of the untreated (control) plants in % An efficacy of 0 means that the infection level of the treated plants corresponds to that of the untreated control plants; an efficacy of 100 means that the treated plants were not infected.
The expected efficacies of the mixtures of the active ingredients were determined using Colby's formula [R. S. Colby, Weeds 15, 20-22 (1967)] and compared with the observed efficacies.
Colby's formula: E=x+y−x·y/100
E expected efficacy, expressed in % of the untreated control, when using the mixture of the active ingredients A and B at the concentrations a and b x efficacy, expressed in % of the untreated control, when using active ingredient A at the concentration a y efficacy, expressed in % of the untreated control, when using active ingredient B at the concentration b Activity against Botrytis cinerea on bell peppers
Disks of green bell peppers were sprayed to runoff point with an aqueous preparation of active ingredient which had been prepared is from a stock solution comprising 10% of active ingredient, 63% of cyclohexanone and 27% of emulsifier. 2 hours after the spray coating had dried on, the fruit disks were inoculated with a spore suspension of Botrytis cinerea containing 1.7×10^6 spores per ml of a 2% strength Biomalz solution. The inoculated fruit disks were subsequently incubated in humid chambers at 18° C. for 4 days. The Botrytis infection on the diseased fruit disks was then evaluated visually.
The visually determined values for the percentage of diseased leaf areas were converted into efficacies as percentage of the untreated control. An efficacy of 0 means the same disease level as in the untreated control, an efficacy of 100 means 0% disease. The expected efficacies for active ingredient combinations were determined using Colby's formula (Colby, S. R. “Calculating synergistic and antagonistic responses of herbicide Combinations”, Weeds, 15, p. 20-22, 1967) and compared with the observed efficacies.

Setting [1] is: single active ingredient, 16 ppm in the spray liquor, green bell pepper disks, 4 days at 18° C.
[2] abbreviates: single active ingredient, 31 ppm in the spray liquor, green bell pepper disks, 4 days at 18° C.

Where two headings read alike, the source gives them in different places.

As to `CCCC1COC(Cn2cncn2)(c2ccc(Cl)cc2Cl)O1` (racemic) [Compound II.12, (±)-1-[2-(2,4-dichlorophenyl)-4-propyl-1,3-dioxolan-2-ylmethyl]-1H-1,2,4-triazole], under setting [1], the pest or weed control at 16 ppm amounted to 0%.
As to `O=C(Nc1ccccc1-c1ccc(F)cc1)c1cccnc1Cl` [Compound I.1], the pest or weed control at 16 ppm turned out to be 10% and the pest or weed control at 31 ppm was 60%.
For `O=C(Nc1ccccc1-c1ccc(Cl)cc1)c1cccnc1Cl` [Compound I.2], the pest or weed control at 16 ppm worked out at 80%.
Turning to `CC(C1CC1)C(O)(Cn1cncn1)c1ccc(Cl)cc1` (stereo not shown) [Compound II.2, 2-(4-chlorophenyl)-3-cyclopropyl-1-(1H-1,2,4-triazol-1-yl)-butan-2-ol], the pest or weed control at 16 ppm under setting [1] is 0%. The pest or weed control at 31 ppm under setting [2] was found to be 10%.
Turning to `Fc1ccc(C2(Cn3cncn3)OC2c2ccccc2Cl)cc1` (stereo not shown) [Compound II.5, (Z)-2-(1H-1,2,4-triazol-1-ylmethyl)-2-(4-fluorophenyl)-3-(2-chlorophenyl)-oxirane], under setting [1], the pest or weed control at 16 ppm is 0%. For the same compound, the pest or weed control at 31 ppm under setting [2] is 0%.
`C[Si](Cn1cncn1)(c1ccc(F)cc1)c1ccc(F)cc1` [Compound II.8, bis(4-fluorophenyl)(methyl)(1H-1,2,4-triazol-1-ylmethyl)-silane]: under setting [1], the pest or weed control at 16 ppm stood at 0%. Further, the pest or weed control at 31 ppm under setting [2] is 0%.
Consider `CCCN(CCOc1c(Cl)cc(Cl)cc1Cl)C(=O)n1ccnc1` [Compound II.11, N-propyl-N-[2-(2,4,^6-trichlorophenoxy)ethyl]imidazol-1-carboxamide], for which the pest or weed control at 16 ppm amounted to 0% and the pest or weed control at 31 ppm is 0%.
Consider `CCCCC(C#N)(Cn1cncn1)c1ccc(Cl)cc1` (stereo not shown) [Compound II.17, 2-p-chlorophenyl-2-(1H-1,2,4-triazol-1-ylmethyl)hexanenitrile], for which the pest or weed control at 16 ppm under setting [1] is 0%.
